# Patent US20040253252A1, “Biological compositions and methods for treatment of leukemia” (priority 2003, published 2004)
# Like-named read-outs stand apart in the source and are kept apart here.
# Columns and labels:
# Type in all cases: in vivo, mouse
# leukemia cell line L6565 [1] = settings: SWI mice
# Method: (§1) The biological composition comprising 10^8 cells per ml of activated and conditioned yeast cells of the strain Saccharomyces cerevisiae Hansen strain AS2.11 was prepared by the methods described in Section 5.1 and subsections therein.
# (§2) The mice injected with tumor cells were immediately divided into 4 experimental groups of ten mice per group and one control group. The four experimental groups were triplicated (i.e., using a total of 120 mice in the experimental groups).
# (§3) The mice in group CK2 also started receiving saline on the same day as the other four groups. […] The number of tumor cells in the mice were determined by standard techniques.
# leukemia cell line T739 [2] = settings: T739 mice
# Method: as §1, §2, §3
# leukemia cell line L6565 [3] = settings: SWI mice; for Number of live animals remaining in the group: 30 mice per group
# Method: The survival time of mice after tumor injection and treatment was studied.
# as §1
# The animals were prepared in a similar manner as described in Section 6.1.
# (§4) The mice injected with tumor cells were kept for 5 days and then were divided into 4 experimental groups of ten mice per group and one control group. The four experimental groups were triplicated (i.e., using a total of 120 mice in the experimental groups). In group 2AY, the mice received 0.3 ml of the biological composition once per day. In group 2NY, the mice received 0.3 ml of the untreated yeast cells once per day. […] In group 2CK1, the mice received 0.3 ml of physiological saline once per day.
# (§5) The mice in group CK2 also started receiving saline on the same day as the other four groups. […] The mice were observed over 6 months from the day of tumor inoculation and survival was recorded. The number of tumor cells in the mice were determined by standard techniques.
# leukemia cell line T739 [4] = settings: T739 mice; for Number of live animals remaining in the group: 30 mice per group
# Method: The survival time of the […] after tumor injection and treatment was studied.
# as §1
# The animals were prepared in a similar manner as described in Section 8.1.
# as §4, with “immediately” for “kept for 5 days and then were”
# as §5
# [5] = 1 month after cessation of treatment
# [6] = 2 months after cessation of treatment
# [7] = 3 months after cessation of treatment
# [8] = 4 months after cessation of treatment
# [9] = 5 months after cessation of treatment
# [10] = 6 months after cessation of treatment
structure (smiles),measurement,setting,value
"O=P1(N(CCCl)CCCl)NCCCO1 (centres unmarked) [CTX, cyclophosphamide]",development of leukemia,"leukemia cell line L6565 [1]; L6565, 21 days of treatment",developed leukemia
same,number of leukemia cells and standard deviation,"leukemia cell line L6565 [1]; L6565 cells s.c., 21 consecutive days of treatment, sacrificed on 22nd day (or measured at time of death)",933 ± 241 cells/ml
same,number of leukemia cells and standard deviation,"leukemia cell line T739 [2]; T739 cells s.c., 21 consecutive days of treatment, sacrificed on 22nd day (or measured at time of death)",957 ± 132 cells/ml
same,development of leukemia,leukemia cell line T739 [2]; 21 days of treatment,developed leukemia
same,Number of live animals remaining in the group,leukemia cell line L6565 [3]; 0 month after cessation of 21 days of treatment,28
same,Number of live animals remaining in the group,leukemia cell line L6565 [3]; [5],19
same,Number of live animals remaining in the group,leukemia cell line L6565 [3]; [6],3
same,Number of live animals remaining in the group,leukemia cell line L6565 [3]; [7],0
same,Number of live animals remaining in the group,leukemia cell line L6565 [3]; [8],0
same,Number of live animals remaining in the group,leukemia cell line L6565 [3]; [9],0
same,Number of live animals remaining in the group,leukemia cell line L6565 [3]; [10],0
same,survival outcome during the experiment,leukemia cell line L6565 [3]; observed over 6 months,died during the experiment
same,Number of live animals remaining in the group,leukemia cell line T739 [4]; 0 month after cessation of treatment,28
same,Number of live animals remaining in the group,leukemia cell line T739 [4]; [5],19
same,Number of live animals remaining in the group,leukemia cell line T739 [4]; [6],3
same,Number of live animals remaining in the group,leukemia cell line T739 [4]; [7],0
same,Number of live animals remaining in the group,leukemia cell line T739 [4]; [8],0
same,Number of live animals remaining in the group,leukemia cell line T739 [4]; [9],0
same,Number of live animals remaining in the group,leukemia cell line T739 [4]; [10],0
same,survival outcome during the experiment,leukemia cell line T739 [4]; observed over 6 months,died during the experiment
